Results as given in PubChem BioAssay (NCI).
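Assay format: 96-well plates, 48-hour exposure. TGI denotes the concentration required for complete inhibition of growth.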

Experiments:
Assay in all cases: NCI-60 cell line screen, 48 h
786-0 renal = system: 786-0 renal
A498 renal = system: A498 renal
A549 NSCLC = system: A549 NSCLC
ACHN renal = system: ACHN renal
BT-549 breast = system: BT-549 breast
CAKI-1 renal = system: CAKI-1 renal
CCRF-CEM leukemia = system: CCRF-CEM leukemia
COLO 205 colon = system: COLO 205 colon
DU-145 prostate = system: DU-145 prostate
EKVX NSCLC = system: EKVX NSCLC
HCC-2998 colon = system: HCC-2998 colon
HCT-116 colon = system: HCT-116 colon
HCT-15 colon = system: HCT-15 colon
HL-60(TB) leukemia = system: HL-60(TB) leukemia
HOP-62 NSCLC = system: HOP-62 NSCLC
HS 578T breast = system: HS 578T breast
HT29 colon = system: HT29 colon
IGROV1 ovarian = system: IGROV1 ovarian
K-562 leukemia = system: K-562 leukemia
KM12 colon = system: KM12 colon
LOX IMVI melanoma = system: LOX IMVI melanoma
M14 melanoma = system: M14 melanoma
MALME-3M melanoma = system: MALME-3M melanoma
MCF7 breast = system: MCF7 breast
MDA-MB-231 breast = system: MDA-MB-231 breast
MDA-MB-435 = system: MDA-MB-435
MDA-N = system: MDA-N
MOLT-4 leukemia = system: MOLT-4 leukemia
NCI-H23 lung = system: NCI-H23 lung
NCI-H460 lung = system: NCI-H460 lung
NCI-H522 lung = system: NCI-H522 lung
NCI/ADR-RES ovarian = system: NCI/ADR-RES ovarian
OVCAR-4 ovarian = system: OVCAR-4 ovarian
OVCAR-5 ovarian = system: OVCAR-5 ovarian
OVCAR-8 ovarian = system: OVCAR-8 ovarian
PC-3 prostate = system: PC-3 prostate
RPMI-8226 leukemia = system: RPMI-8226 leukemia
RXF 393 renal = system: RXF 393 renal
SF-268 CNS = system: SF-268 CNS
SF-295 CNS = system: SF-295 CNS
SF-539 CNS = system: SF-539 CNS
SK-MEL-2 melanoma = system: SK-MEL-2 melanoma
SK-MEL-28 melanoma = system: SK-MEL-28 melanoma
SK-MEL-5 melanoma = system: SK-MEL-5 melanoma
SK-OV-3 ovarian = system: SK-OV-3 ovarian
SN12C renal = system: SN12C renal
SNB-19 CNS = system: SNB-19 CNS
SNB-75 CNS = system: SNB-75 CNS
SR leukemia = system: SR leukemia
SW-620 colon = system: SW-620 colon
T-47D breast = system: T-47D breast
TK-10 renal = system: TK-10 renal
U251 CNS = system: U251 CNS
UACC-257 melanoma = system: UACC-257 melanoma
UACC-62 melanoma = system: UACC-62 melanoma
UO-31 renal = system: UO-31 renal
HOP-92 NSCLC = system: HOP-92 NSCLC
NCI-H226 lung = system: NCI-H226 lung
OVCAR-3 ovarian = system: OVCAR-3 ovarian

In the case of Cc1ccc(S(=O)c2sccc2C=O)cc1 (centres undefined), the TGI (786-0 renal) is reported as over 100 µM, the TGI (A498 renal) is reported as over 100 µM and the TGI (A549 NSCLC) is reported as over 100 µM. The TGI (ACHN renal) was over 100 µM, the TGI (BT-549 breast) was 60.3 µM and the TGI (CAKI-1 renal) was over 100 µM. For the same compound, the TGI (CCRF-CEM leukemia) was 56 µM, the TGI (COLO 205 colon) was over 100 µM and the TGI (DU-145 prostate) was over 100 µM. It also gave a TGI (EKVX NSCLC) of over 100 µM, a TGI (HCC-2998 colon) of over 100 µM and a TGI (HCT-116 colon) of 31 µM. It also gave a TGI (HCT-15 colon) of 85.8 µM, a TGI (HL-60(TB) leukemia) of 48.2 µM and a TGI (HOP-62 NSCLC) of 68.1 µM. The TGI (HS 578T breast) was 65.9 µM, the TGI (HT29 colon) was 45 µM and the TGI (IGROV1 ovarian) was 74.3 µM. For the same compound, the TGI (K-562 leukemia) was over 100 µM, the TGI (KM12 colon) was 70.3 µM and the TGI (LOX IMVI melanoma) was 32.4 µM. The TGI (M14 melanoma) was 58.1 µM, the TGI (MALME-3M melanoma) was over 100 µM and the TGI (MCF7 breast) was 43.8 µM. The TGI (MDA-MB-231 breast) was over 100 µM, the TGI (MDA-MB-435) was 62.6 µM and the TGI (MDA-N) was over 100 µM. For the same compound, the TGI (MOLT-4 leukemia) was 59.1 µM, the TGI (NCI-H23 lung) was over 100 µM and the TGI (NCI-H460 lung) was 50.4 µM. It also gave a TGI (NCI-H522 lung) of over 100 µM, a TGI (NCI/ADR-RES ovarian) of 67.2 µM and a TGI (OVCAR-4 ovarian) of 75 µM. It also gave a TGI (OVCAR-5 ovarian) of over 100 µM, a TGI (OVCAR-8 ovarian) of 56.5 µM and a TGI (PC-3 prostate) of over 100 µM. For the same compound, the TGI (RPMI-8226 leukemia) was 76.2 µM, the TGI (RXF 393 renal) was over 100 µM and the TGI (SF-268 CNS) was 82.4 µM. It also gave a TGI (SF-295 CNS) of 71.3 µM, a TGI (SF-539 CNS) of 41.7 µM and a TGI (SK-MEL-2 melanoma) of over 100 µM. The TGI (SK-MEL-28 melanoma) was 92.4 µM, the TGI (SK-MEL-5 melanoma) was over 100 µM and the TGI (SK-OV-3 ovarian) was over 100 µM. The TGI (SN12C renal) was 63.5 µM, the TGI (SNB-19 CNS) was over 100 µM and the TGI (SNB-75 CNS) was 94.9 µM. The TGI (SR leukemia) was 84.2 µM, the TGI (SW-620 colon) was 55.9 µM and the TGI (T-47D breast) was over 100 µM. The TGI (TK-10 renal) was over 100 µM, the TGI (U251 CNS) was 34.6 µM and the TGI (UACC-257 melanoma) was over 100 µM. It also gave a TGI (UACC-62 melanoma) of 55.3 µM and a TGI (UO-31 renal) of over 100 µM.
O=C(CSc1nc2ccc(I)cc2c(=O)n1Cc1ccccc1)NNC(=O)c1ccccc1 was tested, and the TGI (786-0 renal) was 21 µM, the TGI (A498 renal) was 25.7 µM and the TGI (A549 NSCLC) was 32.6 µM. It also gave a TGI (ACHN renal) of 75.4 µM, a TGI (BT-549 breast) of 21.3 µM and a TGI (CAKI-1 renal) of 12.3 µM. For the same compound, the TGI (CCRF-CEM leukemia) was over 100 µM, the TGI (COLO 205 colon) was over 100 µM and the TGI (DU-145 prostate) was 45.9 µM. For the same compound, the TGI (EKVX NSCLC) was 17.9 µM, the TGI (HCC-2998 colon) was over 100 µM and the TGI (HCT-116 colon) was over 100 µM. For the same compound, the TGI (HCT-15 colon) was over 100 µM, the TGI (HL-60(TB) leukemia) was over 100 µM and the TGI (HOP-62 NSCLC) was 22.7 µM. It also gave a TGI (HOP-92 NSCLC) of 28.2 µM, a TGI (HS 578T breast) of 9.4 µM and a TGI (HT29 colon) of over 100 µM. For the same compound, the TGI (IGROV1 ovarian) was 24.7 µM, the TGI (K-562 leukemia) was 15.5 µM and the TGI (KM12 colon) was over 100 µM. It also gave a TGI (LOX IMVI melanoma) of over 100 µM, a TGI (M14 melanoma) of over 100 µM and a TGI (MCF7 breast) of 23.2 µM. The TGI (MDA-MB-231 breast) was 28.2 µM, the TGI (MDA-MB-435) was over 100 µM and the TGI (MDA-N) was over 100 µM. The TGI (MOLT-4 leukemia) was 23.5 µM, the TGI (NCI-H226 lung) was 15.5 µM and the TGI (NCI-H23 lung) was 68.8 µM. It also gave a TGI (NCI-H460 lung) of over 100 µM, a TGI (NCI-H522 lung) of 25.8 µM and a TGI (NCI/ADR-RES ovarian) of 49 µM. For the same compound, the TGI (OVCAR-3 ovarian) was 90.4 µM, the TGI (OVCAR-4 ovarian) was 57.4 µM and the TGI (OVCAR-5 ovarian) was 40.5 µM. The TGI (OVCAR-8 ovarian) was 20.7 µM, the TGI (PC-3 prostate) was 24 µM and the TGI (RPMI-8226 leukemia) was 28 µM. The TGI (RXF 393 renal) was 17.5 µM, the TGI (SF-268 CNS) was 20.8 µM and the TGI (SF-295 CNS) was 30.7 µM. For the same compound, the TGI (SF-539 CNS) was 8.11 µM, the TGI (SK-MEL-2 melanoma) was 19.2 µM and the TGI (SK-MEL-28 melanoma) was 36.6 µM. For the same compound, the TGI (SK-MEL-5 melanoma) was 33 µM, the TGI (SK-OV-3 ovarian) was 44.9 µM and the TGI (SN12C renal) was over 100 µM. It also gave a TGI (SNB-19 CNS) of 63.3 µM, a TGI (SNB-75 CNS) of 10.3 µM and a TGI (SR leukemia) of 23.7 µM. For the same compound, the TGI (SW-620 colon) was over 100 µM, the TGI (T-47D breast) was 30.5 µM and the TGI (TK-10 renal) was 27.4 µM. For the same compound, the TGI (U251 CNS) was over 100 µM, the TGI (UACC-257 melanoma) was 57.2 µM and the TGI (UACC-62 melanoma) was over 100 µM. The TGI (UO-31 renal) was 2.73 µM.
